Test results: patent publication US8501713B2, “Drug combinations for the treatment of duchenne muscular dystrophy” (Summit Corporation PLC, priority 2007, dated 2013)

Tests used:
mdx mice = experiment: Forced exercise treadmill test: fatigue in mdx mice; format: in vivo, mdx mouse; details: 50 mg/kg ip daily for 5 weeks in combination with prednisolone, FIG. 4
Protocol: The effect of combinations of a compound of formula (1) with a corticosteroid (prednisolone) was examined by measuring fatigue induced by a forced exercise regime in mdx mice. Four to five week-old male mdx mice were forced to exercise (30 min running on horizontal treadmill at 12 m/min twice a week on the same day and at the same time) over a five week treatment course. Each treatment group included 6 mice. At the end of the treatment course, exhaustion was induced by running on a horizontal treadmill at 5 m/min for 5 min, with incremental speed increases of 1 m/min each minute until exhaustion. The total distance run was then measured. […] Sedentary and vehicle only groups acted as negative controls.

[1] = system: Utrophin A promoter linked to a luciferase reporter gene; experiment: Luciferase reporter assay (murine H2K cells); format: cell-based; details: for activity at 10 µM: Mus musculus, H2K mdx, luciferase level relative to control, H2K/mdx/Utro A reporter cells, compound 10 μM final concentration, read-out: Activity; for Activity: luciferase reporter assay in murine H2K cells, classified relative to control
Outline: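 Compound at 10 μM final was applied for 48 hrs to plated H2K mdx myoblasts (33° C, 10% CO2, interferon-containing medium) bearing a luciferase gene under the utrophin A promoter. Luminescence from lysed cells served as read-out.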

mdx hearts = details: Khairallah et al. (2008); cited from earlier work
skeletal muscle cells = experiment: Myotube formation and muscle protein expression in primary cultures of skeletal muscle cells; format: cell-based, mice
Protocol: GTE and EGCG also display unexpected pro myogenic properties. Primary cultures of skeletal muscle cells were established from both normal and dystrophic mice and treated with GTE and EGCG for 1-7 days. […] The amount of myotubes reached similar level with both agents compared to control thereafter. Western-blot analysis was performed on myotube cultures treated for 7 days.

Structure (SMILES) | activity at 10 µM [1] | Activity [1] | other results
C[C@]12C=CC(=O)C=C1CC[C@@H]1[C@@H]2[C@@H](O)C[C@@]2(C)[C@H]1CC[C@]2(O)C(=O)CO [PDN, prednisolone, reference compound] |  |  | exercise-induced fatigue (total distance run to exhaustion) (mdx mice): act in synergy to reduce exercise-induced fatigue
CCS(=O)(=O)c1ccc2oc(-c3ccc4ccccc4c3)nc2c1 [Example 390, 5-(ethylsulfonyl)-2-(naphthalen-2-yl)benzo[d]oxazole] | 301 to 400% |  | exercise-induced fatigue (total distance run to exhaustion) (mdx mice): act in synergy to reduce exercise-induced fatigue
CCCc1nn(C)c2c(=O)[nH]c(-c3cc(S(=O)(=O)N4CCN(C)CC4)ccc3OCC)nc12 [sildenafil] |  |  | myocardial contractile performance (mdx hearts): prevents deterioration of myocardial contractile performance
O=C(O[C@@H]1Cc2c(O)cc(O)cc2O[C@@H]1c1cc(O)c(O)c(O)c1)c1cc(O)c(O)c(O)c1 [EGCG, epigallocatechin gallate] |  |  | expression of muscle-specific proteins (dystrophin, sarcomeric alpha actinin, MyHC) (skeletal muscle cells; myotube cultures treated for 7 days, Western blot): promoted the expression of several muscle-specific proteins; rate of formation of myotubes (skeletal muscle cells; primary skeletal muscle cell cultures from normal and dystrophic mice, within first 2-4 days, MyHC staining): concentration-dependently stimulated the rate of formation of myotubes
CCCCC(=O)Nc1ccc2oc(-c3ccc(N(CC)CC)cc3)nc2c1 [Example 77, N-(2-(4-(diethylamino)phenyl)benzo[d]oxazol-5-yl)pentanamide] | 201 to 300% |  | 
O=C(Nc1ccc2oc(-c3ccc(Cl)cc3)nc2c1)C1CCC1 [Example 266, N-(2-(4-chlorophenyl)benzo[d]oxazol-5-yl)cyclobutanecarboxamide] | 301 to 400% |  | 
CC(C)(C)C(=O)Nc1ccc2oc(-c3ccc(Cl)cc3)nc2c1 [Example 210, N-(2-(4-chlorophenyl)benzo[d]oxazol-5-yl)pivalamide] | 201 to 300% |  | 
O=C(Nc1nc2ccccc2s1)c1cc2ccccc2o1 [Example 626] |  | ++++ (Above 401% relative to control) | 
NS(=O)(=O)c1ccc2oc(-c3ccc(Cl)cc3)nc2c1 [Example 325, 2-(4-chlorophenyl)benzo[d]oxazole-5-sulfonamide] | > 401% |  | 
Nc1ccc(-c2nc3ccc(Cl)cc3o2)cc1 [Example 290, 4-(6-chlorobenzo[d]oxazol-2-yl)aniline] | 301 to 400% |  | 
COc1ccc(OCc2nc3ccccc3n2C)cc1 [Example 528] |  | ++ (Between 201% and 300% relative to control) | 
CN(C)c1ccc(C(=O)Nc2ccc3oc(-c4ccc(Cl)cc4)nc3c2)cc1 [Example 93, N-(2-(4-chlorophenyl)benzo[d]oxazol-5-yl)-4-(dimethylamino)benzamide] | < 200% |  | 
Cn1c(NC(=N)c2ccccc2)nc2ccccc21 [Example 669] |  | ++ (Between 201% and 300% relative to control) | 
CN(C)c1ccc(C(=O)Nc2ccc3oc(-c4cccnc4)nc3c2)cc1 [Example 44, 4-(dimethylamino)-N-(2-(pyridin-3-yl)benzo[d]oxazol-5-yl)benzamide] | < 200% |  | 
Cc1ccc(C(=O)Nc2ccc3oc(-c4ccccc4)nc3c2)cc1 [Example 24, 4-methyl-N-(2-phenylbenzo[d]oxazol-5-yl)benzamide] | < 200% |  | 
O=C(Nc1ccc2oc(-c3ccc(C(F)(F)F)cc3)nc2c1)c1ccncc1 [Example 122, N-(2-(4-(trifluoromethyl)phenyl)benzo[d]oxazol-5-yl)isonicotinamide] | < 200% |  | 

Structure (SMILES) | activity at 10 µM [1] | Activity [1] | other results
CSc1ccc(-c2nc3ccccc3[nH]2)cc1 [Example 543] |  | ++ (Between 201% and 300% relative to control) | 
O=C(Nc1ccc2oc(-c3cccnc3)nc2c1)c1ccco1 [Example 57, N-(2-(pyridin-3-yl)benzo[d]oxazol-5-yl)furan-2-carboxamide] | < 200% |  | 
O=C(Nc1ccccc1F)C(=O)c1c[nH]c2ccccc12 [Example 689] |  | ++ (Between 201% and 300% relative to control) | 
CC(C)c1ccc2oc(-c3ccc(N)cc3O)nc2c1 [Example 565] |  | +++ (Between 301% and 400% relative to control) | 
Cc1ccc2[nH]c(-c3ccc(N)cc3)nc2c1 [Example 532] |  | + (Up to 200% relative to control) | 
O=C(Nc1ccc(-c2nc3ccc(Cl)cc3o2)cc1)c1cccs1 [Example 334, N-(4-(6-chlorobenzo[d]oxazol-2-yl)phenyl)thiophene-2-carboxamide] | < 200% |  | 
Nc1ccc2oc(-c3ccc(OC(F)(F)F)cc3)nc2c1 [Example 350, 2-(4-(trifluoromethoxy)phenyl)benzo[d]oxazol-5-amine] | 201 to 300% |  | 
Cc1cc(-c2nc3ccccc3o2)ccc1[N+](=O)[O-] [Example 607] |  | ++++ (Above 401% relative to control) | 
CC(C)C(=O)Nc1ccc2sc(-c3ccc(Cl)c(Cl)c3)nc2c1 [Example 297, N-(2-(3,4-dichlorophenyl)benzo[d]thiazol-5-yl)isobutyramide] | > 401% |  | 
CN(C)c1ccc(-c2nc3ccccc3[nH]2)cc1 [Example 498] |  | + (Up to 200% relative to control) | 
Cc1cc2nc(-c3ccc(N)cc3O)oc2cc1C [Example 610] |  | ++++ (Above 401% relative to control) | 
Cc1ccc(-c2nc3cc(C(C)(C)C)ccc3o2)cc1 [Example 172, 5-tert-butyl-2-p-tolylbenzo[d]oxazole] | > 401% |  | 
Nc1ccc2oc(-c3cccc(C(F)(F)F)c3)nc2c1 [Example 174, 2-(3-(trifluoromethyl)phenyl)benzo[d]oxazol-5-amine] | < 200% |  | 
CCS(=O)(=O)c1ccc2oc(-c3ccc(C4CCCCC4)cc3)nc2c1 [Example 425, 2-(4-cyclohexylphenyl)-5-(ethylsulfonyl)benzo[d]oxazole] | < 200% |  | 
O=[N+]([O-])c1ccc2nc(-c3ccc(Cl)cc3)oc2c1 [Example 191, 2-(4-chlorophenyl)-6-nitrobenzo[d]oxazole] | 201 to 300% |  | 
COc1ccc(-c2nc3ccc([N+](=O)[O-])cc3o2)cc1 [Example 584] |  | +++ (Between 301% and 400% relative to control) | 
